Measured values as given in patent US20110092488A1, “Quninoline Methanol Compounds for the Treatment and Prevention of Parasitic Infections” (priority 2005, published 2011).
Read-outs that look alike come from different tables or passages of the source.

Legend:
[1] = test system: Balb/c 3T3 mouse fibroblast cells; assay: 3T3 neutral red uptake (NRU) phototoxicity test; assay type: cell-based
Source text: A pharmacophore for phototoxicity was developed to be used as an in silico screening tool to determine the minimum phototoxic concentration for a number of AAQMS (WR069878 and those indicated in Table 5). Minimum phototoxic concentration in a yeast assay for a number of AAQMS, as per Ison et al.; Phototoxicity of Quinoline methanols and other drugs in mice and yeast; J. Invest. Dermatol. (52)193-198 (1969) were used to generate a three-dimensional pharmacophore model using the HypoGen algorithm of the […]® (Accelrys software Inc.) methodology as per Bhattacharjee et al.; A 3D QSAR pharmacophore model and quantum chemical structure—activity analysis of chloroquine(CQ)-resistance reversal; J. Chem Inf. Comput Sci. (42) 1212-1220 (2002), and Dow et al.; as discussed in Antimicrob Agents Chemother. (48)2624-2632 (2004), cited above, both Bhattacharjee et al. and Dow et al, incorporated herein, by reference. The structures of clinically used quinoline methanols were mapped onto the pharmacophores and estimated values for minimum phototoxic concentration were generated. The 3T3 neutral red uptake (NRU) phototoxicity test, conducted by MB Research Laboratories (Spinnerstown, Pa.), was used to identify quinoline methanols (WR069878 and those in Table 5) that have the potential to exert in vivo phototoxicity after systemic application. Briefly, the central 60 wells of two 96-well plates per AAQM were seeded with Balb/c 3T3 mouse fibroblast cells and maintained in culture for 24 hrs. These plates were then pre-incubated with a range of eight different concentrations of test compound (six wells per concentration) for one hour. Next, one plate was treated with a UVA dose of 5 J/cm2 by irradiating for 50 min at 1.7 mW/cm2, whereas the other plate remained non-treated and in the dark. Next, the treatment medium was replaced with culture medium and cell viability was determined after 24 hrs by measuring neutral red uptake for 3 hrs. Finally, the 3T3 NRU Phototox Prediction Software (version 2.0, ZEBET) was used to calculate EC50 values and Photo-Irritant Factors (PIF) for each compound. […]

[2] = by 'injection'; Ison and Davis, 1969; cited from earlier work
yeast = details: Ison and Davis, 1969; cited from earlier work
P. falciparum TM91C235 = assay: In vitro antimalarial activity against P. falciparum TM91C235; assay type: cell-based, Plasmodium falciparum
Procedure: The in vitro activities of AAQMs against P. falciparum strains W2, D6, TM91C235 and TM90C2A were evaluated using the method of Desjardins et al. as modified by Milhous et al. W2 is chloroquine resistant and mefloquine sensitive, D6 is chloroquine sensitive but naturally less susceptible to mefloquine, TM91C235 is resistant to mefloquine, chloroquine and pyrimethamine as is TM90C2A, however this latter parasite is a two pfmdr1 copy strain. We routinely run mefloquine in this screen as a control to ensure assay validity.

[3] = test system: FVO strain of P. falciparum; assay: Efficacy in P. falciparum-challenged Aotus monkeys; assay type: in vivo, Plasmodium falciparum in Aotus lemurinus lemurinus
Procedure: (§1) The P. berghei-mouse efficacy data were obtained from the WRAIR chemical information system (subcutaneous testing) or from recent tests conducted at AFRIMS, Thailand or at the University of Miami using a modified version of the Thompson test. Groups of five mice were inoculated through i.p. injection on day 0 (usually with 1×106 P. berghei-parasitized erythrocytes). The drugs in Table 1 were administered either subcutaneously or orally for three days (usually on days 3-5) at doses of 1.25-160 mg/kg in two to four fold increments. Cure was defined as survival until day 60 (subcutaneous dosing) or day 31 post-treatment (oral dosing). […] The minimum effective dose was the lowest dose level that cured at least one of five mice. The Aotus studies were performed according to Obaldia; Detection of Klebsiella pnuumoniae antibodies in Aotus l. lemurinus (Panamanian owl monkey) using an enzyme linked immunosorbent assay (ELIA) test; Lab Anim (25)133-141 (1991) and Obaldia et al., WR 238605, chloroquine, and their combinations as blood schizonticides against a chloroquine-resistant strain of Plasmodium vivax in Aotus monkeys; Am. J. Trop. Med. Hyg. (56)508-510 (1997), which are incorporated by reference, herein. Groups of two Aotus lemurinus 6 lemurinus of the karyotype VIII or IX (27) male and female monkeys with weights ranging from 742-970 g were inoculated with 5×10^6 parasites of either the FVO strain of P. falciparum or the AMRU1 strain of P. vivax. Both of these strains are chloroquine resistant. […] Monkeys were examined and thick Giemsa-stained blood smears were prepared and enumerated daily (17) to monitor the course of infection. […] In some instances, a high dose of the test drug was used to retreat monkeys instead of the mefloquine rescue. Monkeys are considered cured if they are parasite free 90 days post treatment. […] Plasma samples were taken from the monkeys in some studies for quantification of metabolites. Additional blood samples were taken as appropriate for complete blood counts and serum chemistry. Research was conducted in compliance with the Animal Welfare Act and other federal statutes and regulations relating to animals and experiments involving animals and adheres to principles stated in the Guide for the Care and Use of Laboratory Animals, NRC Publication, 1996 edition (34).

[4] = Aotus, 10 mg/kg/day oral x7
Procedure: as §1

[5] = mouse, in vivo
[6] = test system: Plasmodium falciparum malaria; details: P. falciparum malaria, South East Asia; WR030090: field trials; cited from earlier work

For `OC(c1cc(-c2ccccc2)nc2c(Cl)cc(Cl)cc12)C1CCCCN1` (stereo not drawn) [WR007930], the “Photo Irritant Factor (PIF)” value ([1]; UVA 5 J/cm2, potential to be phototoxic if PIF > 5.0) is listed as 29.0, the “Minimum phototoxic dose in mice” value [2] is listed as “Minimum phototoxic dose is 7 mg/kg” and the “Yeast minimum phototoxic concentration” value (yeast) is listed as 31 mg/ml^c.
For `CCCCN(CCCC)CC(O)c1cc(-c2ccc(Cl)c(Cl)c2)nc2c(Cl)cc(Cl)cc12` (stereo not drawn) [WR030090], the “Activity against P. falciparum TM91C235 (IC50 in ng/ml)” value (P. falciparum TM91C235) was 11 ng/mL, the “TM91C235 IC90” value (P. falciparum TM91C235; Table 2) was 0.052 µg/mL and the “Outcome in Aotus, earlier studies” value ([3]; 10 mg/kg/day x7, WRAIR archival data) was “cleared but did not cure infections”. The “Outcome in Aotus” value ([3]; 10 mg/kg/day x7 oral, groups of two, Cure = parasite free 90 days, R = average day of recrudescence, Failure = rescued with mefloquine) was “Failure”, the “Mean peak concentration” value [4] was 307 ng/mL and the “Plasma conc on day 1 (ng/ml) 2 h” value ([4]; day 1, 2 h) was 597 ng/mL. For the same compound, the “Plasma conc on day 1 (ng/ml) 24 h” value ([4]; day 1, 24 h) was 11 ng/mL, the “Plasma conc. on day 7 (ng/ml) 2 h” value ([4]; day 7, 2 h) was 16 ng/mL and the “Plasma conc. on day 7 (ng/ml) 24 h” value ([4]; day 7, 24 h) was 5.6 ng/mL. For the same compound, the “Photo Irritant Factor (PIF)” value [1] was 105.7, the Phototoxicity in mice [5] was “are phototoxic^d” and the Cure rate [6] was “at least 88%”.
